{
  "source": "patent US9980942B2",
  "about": "“Rejuvenation of precursor cells” (Children's Hospital Medical Center, priority 2012, dated 2018)",
  "key": {"[1]": {"tested_on": "aged LT-HSCs", "assay": "Immunofluorescence polarity scoring of Cdc42 and tubulin", "type": "cell-based, mouse", "protocol": "Freshly sorted LT-HSCs were seeded on fibronectin-coated glass coverslips in HBSS+10% FBS. CASIN (referred to in (Peterson et al., 2006) as Pirl1-related compound 2) was obtained from Chembridge Corporation, and purified to greater than 99% by high-performance liquid chromatography. After 16 hours of incubation at 37° C., 5% CO2, 3% O2, cells were fixed with BD Cytofix Fixation Buffer (BD Biosciences).\nAfter fixation cells were gently washed with PBS, permeabilized with 0.2% Tryton X-100 (Sigma) in PBS for 20 minutes and blocked with 10% Donkey Serum (Sigma) for 30 minutes. Primary and secondary antibodies incubations were performed for 1 hr at room temperature. […] The cells were coimmunostained with an anti-alpha tubulin antibody (Abcam, rat monoclonal ab6160) detected with an anti-rat AMCA-conjugated secondary antibody or an anti-rat DyLight 488-conjugated antibody (Jackson ImmunoResearch), an anti-Cdc42 antibody (Millipore, rabbit polyclonal) detected with an anti-rabbit DyLight 549-conjugated antibody (Jackson ImmunoResearch) and an anti-Pericentrin-2 antibody (Santa Cruz Biotechnology, goat polyclonal) detected with an anti-goat MCAconjugated antibody (Jackson ImmunoResearch). […] Images were analyzed with AxioVision 4.6 software. Alternatively, samples were analyzed with an LSM710 confocal microscope (Zeiss) equipped with a 63X objective. […]"}, "[2]": {"tested_on": "skin epithelium", "assay": "In vivo rejuvenation of skin epithelium (immunohistochemistry, skin thickness)", "parameters": "species or system mice", "protocol": "To test the extent to which CASIN rejuvenates skin and intestinal epithelium in vivo, aged (22-24 month old B1 6) and young (10-12 week old B1 6) mice were injected with CASIN twice daily (2.4 mg/Kg in PBS and 15% EtOH). A group of control mice in each age group were not given the drug. The injections were given 6 hours apart for 5 days. After 28 days, the mice were sacrificed and skin and intestinal samples were processed for immunohistochemistry.\n(§1) To further assess the effects of in vivo administration of CASIN on aging parameters in the skin, aged mice were treated with CASIN as described in Example 5. The treated and untreated aged and young mice were then tested for skin thickness."}, "[3]": {"tested_on": "HSC", "assay": "In vivo rejuvenation of HSC (Example 6)", "parameters": "species or system mice", "protocol": "To test the extent to which CASIN rejuvenates HSC in vivo, aged (20+ months old mice) are given CASIN i. v. or i.p. twice daily for 28 days and compared to young as well as aged solvent injected control groups. In 28 days most of the HSCs cycle at least once in vivo. Subsequently, PB is harvested every 14 days for a total of 2 months and differential blood counts (myeloid cells, lymphoid cells, red blood cells etc) are determined by hemavat counting and flow cytometry. At 3 months post CASIN treatment, when hematopoesis should be fully supported by stem cell activity of the CASIN exposed HSCs, animals are sacrificed and the number of early hematopoietic progenitor cells (Lineage^negc-Kit^+Sca-1^+ or LSK), long-term repopulating-HSC (LSKCD34^low/−Flk-2^−, LT-HSC), lymphoid-primed multi-potent progenitors (LMPPs, LSKCD34^+Flk-2^+11, 23, 24) are determined.\nSeparately, to investigate the effect of CASIN on stem cell fitness and lineage differentiation, standard competitive transplantation assays are performed using the syngeneic CD45.1/CD45.2 surface marker system to differentiate donor from recipient cells. […] Lineage chimerism (myeloid, B- and T-lymphoid) in peripheral blood (PB) is then determined up to 24-weeks post-transplant. […]"}, "[4]": {"tested_on": "skin", "assay": "Topical rejuvenation of dermal tissue", "type": "in vivo", "settings": "aged mice, topical non-transdermal formulation", "protocol": "as §1, with “are” for “were”, “5. However, instead of intraperitoneal injection, CASIN is administered topically in a formulation designed for non-transdermal use.” for “5.”, “thickness and wound healing.” for “thickness.”"}},
  "data": [
    {"smiles": "OCCNC1CCCc2c1[nH]c1ccc(-c3ccccc3)cc21", "note": "(centres unmarked) [CASIN]", "values": [
      {"measurement": "time the increase in percentage of polar cells remained stable after CASIN withdrawal", "setting": "[1]; aged LT-HSCs in vitro", "result": "≥ 6", "unit": "h"},
      {"measurement": "percentage of polarized cells (Cdc42 and tubulin)", "setting": "[1]; aged LT-HSCs, 2.5 and 5 μM CASIN", "result": "dose-dependent increase"},
      {"measurement": "skin thickness", "setting": "[2]; aged mice treated as in Example 5", "result": "approximately equal to that of young mice"},
      {"measurement": "number and density of hair follicles", "setting": "[2]; aged mice, 2.4 mg/Kg twice daily for 5 days, after 28 days, vs untreated aged mice", "result": "marked improvement"},
      {"measurement": "preferential differentiation towards the myeloid lineage", "setting": "[3]; CASIN-treated aged HSCs", "result": "ameliorated"},
      {"measurement": "chimerism in competitive transplant assays", "setting": "[3]; HSCs from CASIN-treated aged animals", "result": "greater than the overall chimerism supported by aged HSCs and similar to that observed for young HSCs"},
      {"measurement": "skin thickness", "setting": "[4]", "result": "approximately equal to that of young mice"},
      {"measurement": "wound healing", "setting": "[4]", "result": "respond similarly or nearly identical to the skin of young mice"}
    ]}
  ]
}
